Assay results from patent US20190175633A1, “REACTIVE, LIPOPHILIC NUCLEOSIDE BUILDING BLOCKS FOR THE SYNTHESIS OF HYDROPHOBIC NUCLEIC ACIDS” (Ionovation GmbH, priority 2017, published 2019).
Entries after “also recorded” stand apart in the source; their conditions may differ.

Key:
[1] = system: IGR-OV1 cells; assay: Oncological test against IGR-OV1 cells; format: cell-based, human; settings: IGR-OV1, FIGS. 12 and 13
Text: (§1) FIGS. 10 to 17 show the activity of compounds ESP_2.2, ESP_2.5 and ESP_31 according to the invention as well as the comparative examples ESP_2 and ESP_3 (Table 4) in relation to the concentration employed against various different cancer cells. […] The x-axis depicts the molar concentration of the respective compound on a logarithmical scale.
The epithelial morphology of IGR-OV1 cells was retained during in vitro and in vivo passages. Two cytogenetic markers characterize IGR-OV1 cells: a paracentric inversion of chromosome 3, and a translocation between chromosomes 2 and 5. These characteristics make the IGR-OV1 cell line a suitable experimental model for the treatment of human ovarian carcinomas and for biological studies of human solid tumors.

[2] = system: human colorectal adenocarcinoma cell line HCT15; format: cell-based; settings: for activity on cell growth (growth inhibition / cytotoxic effect): HCT-15, FIGS. 14 and 15
Text: The x-axis depicts the molar concentration of the respective compound on a logarithmical scale.

[3] = system: primary clear renal cell adenocarcinoma (cell line 786-0); assay: Oncological test against 786-0 cells; format: cell-based; settings: 786-0, FIGS. 16 and 17
Text: as §1
This cell line is derived from a primary clear renal cell adenocarcinoma. The cells display both microvilli and desmosomes, and can be grown in soft agar. The cells produce a PTH like peptides that is identical to peptides produced by breast and lung tumors. The peptide has an N terminal sequence similar to PTH, has PTH like activity, and has a molecular weight of 6000 daltons.

[4] = system: various cancer cells; assay: Oncological tests, summary over FIGS. 10 to 17; format: cell-based; settings: ovarian, colon and kidney cancer cells
Text: as §1

| Compound | melting point [°C] | other results |
| --- | --- | --- |
| CCCCCCCCCCCCCCCCCCN(CCBr)CCCCCCCCCCCCCCCCCC | 69 to 71 | – |
| CCCCCCCCCCCCCCCCCCN1CCCC1 | 25 to 27 | – |
| COc1ccc(C(OC[C@H]2O[C@@H](n3cnc4c(=O)n(C/C=C(\C)CCC=C(C)C)cnc43)C[C@@H]2O)(c2ccccc2)c2ccc(OC)cc2)cc1 [Compound 4a, 9-((2R,4S,5R)-5-((Bis(4-methoxyphenyl)(phenyl)methoxy)-methyl)-4-hydroxytetrahydrofuran-2-yl)-1-((E)-3,7-di-methylocta-2,6-dienyl)-1H-purin-6(9H)-one] | 74 | – |
| COc1ccc(C(OC[C@H]2O[C@@H](n3cnc4c(=O)n(C/C=C(\C)CC/C=C(\C)CCC=C(C)C)cnc43)C[C@@H]2O)(c2ccccc2)c2ccc(OC)cc2)cc1 [Compound 4b, 9-((2R,4S,5R)-5-((Bis(4-methoxyphenyl)(phenyl)methoxy)-methyl)-4-hydroxytetrahydrofuran-2-yl)-1-((2E,6E)-3,7,11-trimethyldodeca-2,6,10-trienyl)-1H-purin-6(9H)-on] | 68 | – |
| CCCCCCCCCC1(CCCCCCCCC)O[C@@H]2[C@H](O1)[C@@H](CO)O[C@H]2n1ccc(=O)[nH]c1=O [Compound 25b, 1-((3aR,4R,6R,6aR)-6-(hydroxymethyl)-2,2-dinonyltetrahydrofuro[3,4-d][1,3]dioxol-4-yl)pyrimidin-2,4(1H,3H)-dione] | 69.8 | – |
| CCCCCCCCCCCCCC1(CCCCCCCCCCCCC)O[C@@H]2[C@H](O1)[C@@H](CO)O[C@H]2n1ccc(=O)[nH]c1=O [Compound 25c, 1-((3aR,4R,6R,6aR)-6-(hydroxymethyl)-2,2-ditridecyltetrahydrofuro[3,4-d][1,3]dioxol-4-yl)pyrimidin-2,4(1H,3H)-dione] | 90.1 | – |
| CCCCCCCCCCCCCCCC1(CCCCCCCCCCCCCCC)OC2C(CO)OC(n3ccc(=O)[nH]c3=O)C2O1 (stereo not drawn) [Compound 25d, 1-(6-Hydroxymethyl-2,2-dipentadecyl-tetrahydro-furo[3,4-d][1,3]dioxol-4-yl)-1H-pyrimidin-2,4-dione] | 93 | – |
| CCCCCCCCCCCCCCCCCCN(CCCCCCCCCCCCCCCCCC)CC(=O)O [Compound 37, N,N-dioctadecylglycine] | 102 to 103 | – |
| CCOC(=O)CC[C@@]1(C)O[C@@H]2[C@H](O1)[C@@H](COC(c1ccccc1)(c1ccccc1)c1ccc(OC)cc1)O[C@H]2n1ncc(=O)[nH]c1=O [ESP_2.2, Ethyl-3-((3aR,4R,6R,6aR)-4-(3,5-dioxo-4,5-dihydro-1,2,4-triazin-2(3H)-yl)-6-(((4-methoxyphenyl)diphenylmethoxy)methyl)-2-methyltetrahydrofuro[3,4-d][1,3]dioxol-2-yl)propanoate] | – | activity on cell growth (growth inhibition / cytotoxic effect) [1]: activity of the compound could be increased; activity on cell growth (growth inhibition / cytotoxic effect) [2]: increased activity |
| CCOC(=O)CCC1(C)O[C@@H]2[C@H](O1)[C@@H](CO)O[C@H]2n1ncc(=O)n(C/C=C(\C)CC/C=C(\C)CCC=C(C)C)c1=O (stereo partly drawn) [ESP_2.5, Ethyl-3-((3aR,4R,6R,6aR)-4-(3,5-dioxo-4-((2E,6E)-3,7,11-trimethyldodeca-2,6,10-trien-1-yl)-4,5-dihydro-1,2,4-triazin-2 (3H)-yl)-6-(hydroxymethyl)-2-methyltetrahydrofuro[3,4-d][1,3]dioxol-2-yl)propanoate] | – | activity on cell growth (growth inhibition / cytotoxic effect) [1]: improved inhibition effect; activity on cell growth (growth inhibition / cytotoxic effect) [2]: increased activity; death of the cells (cytotoxic effect) ([2]; HCT-15, employed in high dosage): over 50%; activity on cell growth (growth inhibition / cytotoxic effect) [3]: high cytotoxic effect; activity / cytotoxicity against various cancer cells [4]: particular high cytotoxicity |
| O=c1ccn([C@@H]2O[C@H](CO)[C@@H](O)[C@H]2O)c(=O)[nH]1 [ESP_3, uridine, reference compound] | – | activity on cell growth (growth inhibition / cytotoxic effect) [1]: did not even cause a growth inhibition; activity on cell growth (growth inhibition / cytotoxic effect) [3]: does not show any activity at all; also recorded: did not show any activity at all |
| CCCCCCCCCC1(CCCCCCCCC)OC2[C@@H](CO)O[C@@H](n3ccc(=O)[nH]c3=O)[C@H]2O1 (stereo partly drawn) [ESP_31] | – | activity on cell growth (growth inhibition / cytotoxic effect) [1]: vast improvement with respect to the cytotoxic activity; activity on cell growth (growth inhibition / cytotoxic effect) [2]: high cytotoxic activity; activity on cell growth (growth inhibition / cytotoxic effect) [3]: cytotoxic effect |

More lines, main results first:

| melting point [°C] | Compound | other results |
| --- | --- | --- |
| 44 to 45 | CCCCCCCCCCCCCCCCCCN(CCCCCCCCCCCCCCCCCC)C(C)C(=O)OC (stereo not drawn) [Compound 41, Methyl N,N-dioctadecyl-2-aminopropionate] | – |
| 48 to 49 | CCCCCCCCCCCCCCCCCCN(CCCO)CCCCCCCCCCCCCCCCCC [Compound 42, 3-(Dioctadecylamino)propanol] | – |
| 68 to 69 | CCCCCCCCCCCCCCCCCCN(CCCCCCCCCCCCCCCCCC)C(=O)CCC(=O)O [Compound 46, 4-(Dioctadecylamino)-4-oxobutanoic acid] | – |
| 29 to 30 | CCCCCCCCCCCCCCCCCCN(CCCCCCCCCCCCCCCCCC)C(=O)CCC(=O)OC [Compound 47, Methyl 4-(dioctadecylamino)-4-oxobutanoate] | – |
| 57 to 58 | CCCCCCCCCCCCCCCCCCN(CCCCO)CCCCCCCCCCCCCCCCCC [Compound 48a, 4-(Dioctadecylamino)butan-1-ol] | – |
| 51 to 52 | CCCCCCCCCCCCCCCCCCN(CC#CCCl)CCCCCCCCCCCCCCCCCC [Compound 51, 4-Chloro-N,N-dioctadecylbut-2-yn-1-amine] | – |
| 55 to 56 | CCCCCCCCCCCCCCCCCCN(CC#CCN(CCCCCCCCCCCCCCCCCC)CCCCCCCCCCCCCCCCCC)CCCCCCCCCCCCCCCCCC [Compound 52, N,N,N′,N′-Tetraoctadecylbut-2-yne-1,4-diamine] | – |
| 43 to 44 | C#CCN(CC#C)CCCCCCCCCCCCCCCCCC [Compound 57, N-Octadecyl-N,N-diprop-2-ynylamine] | – |
| 124 to 125 | CCCCCCCCCCCCCCCCCCNC(=O)CCC(=O)O [Compound 58, 4-(Octadecylamino)-4-oxobutanoic acid] | – |
| 86 to 87 | CCCCCCCCCCCCCCCCCCNC(=O)CCC(=O)OC [Compound 59, Methyl 4-(octadecylamino)-4-oxobutanoate] | – |
| 68 to 69 | CCCCCCCCCCCCCCCCCCNCCCCO [Compound 60, 4-(Octadecylamino)butan-1-ol] | – |
| 86 to 87 | CCCCCCCCCCCCCCCCCCNC(=O)CCCO [Compound 62, 4-Hydroxy-N-octadecylbutanamide] | – |
| 33 to 34 | C#CCN(CCCCO)CCCCCCCCCCCCCCCCCC [Compound 63, 4-[Octadecyl(prop-2-ynyl)amino]butan-1-ol] | – |
